# Source: patent US20260191864A1, “Uses of Hydroimidazopyridopyrimidinone Derivatives for Managing Aneurysms or Other Vascular Conditions or Diseases” (Emory University, priority 2022, published 2026)
# Columns and labels:
# aortic aneurysms = conditions: mice; aortic diameter at day 14 vs baseline (FIGS. 1A-1C)
# Text: It is contemplated that VSMC phenotypic modulation is responsible for foam cell formation during atherosclerosis.
# Data represents percentage of maximal aortic dilation on day 14 of each animal. The recording and subsequent analysis were blinded to the assignment of the treatment regimen.
# Images were quantified using ImageJ plus/color deconvolution plugin.
# vascular smooth muscle = vascular smooth muscle differentiation in vivo (ACTA2 smooth muscle actin staining); conditions: mice, ACTA2 staining (FIG. 1D)
structure (smiles),measurement,setting,value
"Cc1ccccc1CN1C(=O)C2=C(CCN(Cc3ccccc3)C2)N2CCN=C12 [ONC201, 7-benzyl-4-(2-methylbenzyl)-2,4,6,7,8,9-hexahydroimidazo[1,2-a]pyrido[3,4-e]pyrimidin-5 (1H)-one]",formation of aortic aneurysms,aortic aneurysms,inhibits the formation of aortic aneurysms in mice
same,vascular smooth muscle differentiation,vascular smooth muscle,induces vascular smooth muscle differentiation in vivo
